Drawing on PubChem BioAssay AID1963964 (Molecular Pharmacology Branch, DTP, NCI, 2024), this text covers viability, T/C and IC50 for two compounds.

This experiment deals with 997726-040-R-J2-PDC tumor spheroids, viability. Briefly: Anticancer human tumor 997726-040-R-J2-PDC patient-derived squamous cell lung carcinoma cell line growth inhibition [PI3K]. The settings on record: spheroids with HUVEC and MSC; for viability, T/C: stronger effect = lower value. In a few lines:
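Combination activity was assessed by viability in multicellular tumor spheroids carrying HUVEC and MSC components. Agents were tested with PI3K inhibitors from a Cmax-based top dose (or 10 microM) downward in half-log increments.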
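Further: spheroids exposed to compounds for seven days before readout.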

By viability, T/C is commonly meant the ratio of treated to control. For the compound `Cn1cnc2c(F)c(Nc3ccc(Br)cc3Cl)c(C(=O)NOCCO)cc21`, the viability, T/C (compound 0.00949 µM) was 77.2% [middle of 4 runs]; the viability, T/C (compound 0.03 µM) is 70.8% [middle of 4 runs]; the viability, T/C (compound 0.0949 µM) was 58.2% [middle of 4 runs]; the viability, T/C (compound 0.3 µM) was 48.6% [middle of 4 runs]; the viability, T/C (compound 0.949 µM) is 48.3% [middle of 4 runs]; the viability, T/C (compound 3 µM) was 40.8% [middle of 4 runs].
The term IC50 denotes the point on the concentration scale where inhibition reaches its midpoint. Take `CC(C)NCC(C(=O)N1CCN(c2ncnc3c2C(C)CC3O)CC1)c1ccc(Cl)cc1` (stereo not drawn): the viability, T/C is, setting by setting: (compound 0.0316 µM) 88.5% [middle of 4 runs]; (compound 0.1 µM) 77% [middle of 4 runs]; (compound 0.316 µM) 51.8% [middle of 4 runs]; (compound 1 µM) 25.5% [middle of 4 runs]; (compound 3.16 µM) 13.7% [middle of 4 runs]; (compound 10 µM) 9.08% [middle of 4 runs]. Further, the 50% inhibitory concentration (IC50) (curve of compound) was 336 nM [middle of 4 runs].
